Assay: in vitro
Details: human, hek293t cells

Compound `C=CC(=O)NCC(CC)n1nc(C)cc1C` (centres unmarked) [1-K21, N-[2-(3,5-dimethyl-1H-pyrazol-1-yl)butyl]prop-2-enamide] has a viability at 48 h, 25 µM of 108%.

In the case of `CC(Cl)C(=O)c1c(N)n(C)c(=O)n(C)c1=O` (centres unmarked) [10-F22, 6-amino-5-(2-chloropropanoyl)-1,3-dimethyl-1,2,3,4-tetrahydropyrimidine-2,4-dione], the viability at 48 h, 25 µM was 87.8%.

`COc1cc(C)c(C=C(C#N)C(=O)Nc2ccc(C)cc2)cc1C(C)C` [9-C04, 2-cyano-3-[4-methoxy-2-methyl-5-(propan-2-yl)phenyl]-N-(4-methylphenyl)prop-2-enamide] showed a viability at 48 h, 25 µM of 127%.

`C=CC(=O)Nc1ccc(C(=O)N2CCCCC2CS(C)(=O)=O)cc1` (centres unmarked) [2-N18, N-{4-[2-(methanesulfonylmethyl)piperidine-1-carbonyl]phenyl}prop-2-enamide] gave a viability at 48 h, 25 µM of 102%.

For `C=CC(=O)NCc1c(Cl)c(C(F)(F)F)nn1C` [2-J07, N-{[4-chloro-1-methyl-3-(trifluoromethyl)-1H-pyrazol-5-yl]methyl}prop-2-enamide], the viability at 48 h, 25 µM was 72.8%.

For `C=CC(=O)Nc1c(C)cccc1SCC(=O)N(C)C` [1-E13, N-(2-{[(dimethylcarbamoyl)methyl]sulfanyl}-6-methylphenyl)prop-2-enamide], the viability at 48 h, 25 µM was 78.8%.

Compound `C=CC(=O)N1CCC(Cc2nc(C3CCC3)no2)CC1` [2-A06, 1-{4-[(3-cyclobutyl-1,2,4-oxadiazol-5-yl)methyl]piperidin-1-yl}prop-2-en-1-one] has a viability at 48 h, 25 µM of 93%.

Compound `N#CC(=Cc1csc(C2CC2)n1)C(=O)Nc1ccccc1C(=O)O` [9-C16, 2-[2-cyano-3-(2-cyclopropyl-1,3-thiazol-4-yl)prop-2-enamido]benzoic acid] has a viability at 48 h, 25 µM of 92.9%.

`CC(Cl)C(=O)NCCc1ccc[nH]1` (centres unmarked) [7-L09, 2-chloro-N-[2-(1H-pyrrol-2-yl)ethyl]propanamide] gave a viability at 48 h, 25 µM of 91.9%.

For `N#CC(=Cc1ccc(C(F)(F)F)cc1)C(=O)Nc1ccccc1` [9-I04, 2-cyano-N-phenyl-3-[4-(trifluoromethyl)phenyl]prop-2-enamide], the viability at 48 h, 25 µM was 93.7%.

In the case of `Cn1cc(C(=O)CCl)cc1C(N)=O` [10-J06, 4-(2-chloroacetyl)-1-methyl-1H-pyrrole-2-carboxamide], the viability at 48 h, 25 µM was 1.55%.

Work on `C=CC(=O)N1CCOC(Cn2cncn2)C1` (centres unmarked) [1-F20, 1-{2-[(1H-1,2,4-triazol-1-yl)methyl]morpholin-4-yl}prop-2-en-1-one] yielded a viability at 48 h, 25 µM of 85.3%.

In the case of `CC(NC(=O)C(C#N)=Cc1cc(O)ccc1[N+](=O)[O-])c1ccccc1` (centres unmarked) [9-D15, 2-cyano-3-(5-hydroxy-2-nitrophenyl)-N-(1-phenylethyl)prop-2-enamide], the viability at 48 h, 25 µM was 101%.

In the case of `C=CC(=O)Nc1sc2c(c1C(=O)c1ccc(C)cc1)CCOC2` [1-J22, N-[3-(4-methylbenzoyl)-4H,5H,7H-thieno[2,3-c]pyran-2-yl]prop-2-enamide], the viability at 48 h, 25 µM was 0.993%.

`C=CC(=O)N1CCC(C(=O)Nc2cccc(NC(=O)C(C)C)c2)CC1` [3-F05, N-[3-(2-methylpropanamido)phenyl]-1-(prop-2-enoyl)piperidine-4-carboxamide] gave a viability at 48 h, 25 µM of 53.3%.

Work on `COc1ccc(C=C(C#N)C(=O)NCc2ccccc2)cc1O` [8-C09, N-benzyl-2-cyano-3-(3-hydroxy-4-methoxyphenyl)prop-2-enamide] yielded a viability at 48 h, 25 µM of 66.6%.

In the case of `C=CC(=O)NC1CC(C)Cc2cc(OC)ccc21` (centres unmarked) [3-L17, N-(6-methoxy-3-methyl-1,2,3,4-tetrahydronaphthalen-1-yl)prop-2-enamide], the viability at 48 h, 25 µM was 61.6%.

With `C=CC(=O)N1CCC(C(=O)Nc2cccc(N3CCCC3=O)c2)CC1` [2-H04, N-[3-(2-oxopyrrolidin-1-yl)phenyl]-1-(prop-2-enoyl)piperidine-4-carboxamide] the viability at 48 h, 25 µM was 84.3%.

Compound `Cc1cc(NS(=O)(=O)c2ccc(NC(=O)CCl)cc2)nc(C)n1` [5-I09, 2-chloro-N-{4-[(2,6-dimethylpyrimidin-4-yl)sulfamoyl]phenyl}acetamide] has a viability at 48 h, 25 µM of 1.31%.

In the case of `C=CC(=O)NCc1cc(C2CC2)nn1C` [1-L10, N-[(3-cyclopropyl-1-methyl-1H-pyrazol-5-yl)methyl]prop-2-enamide], the viability at 48 h, 25 µM was 92.5%.
